How the values were obtained:
[1] = tested on: Monoclonal antibodies to the junction region of βAP; assay: Saturation analysis (RIA): displacement of 125I-labeled βAP1-28 from junction-region hybridoma clones by unlabeled peptide; assay type: binding, mice
Description: The RIA method used to screen serum bleeds and fusion hybridoma supernatants was based upon a method developed by Wang et al. (1977) J. Immunol. Methods 18:157-164. Briefly, the supernatant (or serum) was incubated overnight at room temperature on a rotator with ^125I-labeled βAP1-28 and Sepharose® 4B beads to which sheep anti-mouse IgG had been coupled via cyanogen bromide. The beads from each well were harvested onto glass fiber filter discs with a cell harvester and washed several times with PBS. The filter discs were then transferred to gamma tubes and the bound radioactivity was counted in a gamma counter.
Based on results of the above assays, several clones were expanded into 24 well plates. These clones were further characterized by saturation analysis. Supernatants at the 50% titer point (as determined by the RIA method described above) were added to wells containing Sepharose®-sheep anti-mouse IgG beads, a constant amount of ^125I-labeled βAP1-28, and varying amounts of unlabeled βAP13-28 or βAP17-28. The concentration of cold peptide for 50% inhibition was determined for each antibody. […] The 50% inhibition point for βAP13-28 ranged from 10-80 ng/well. The clones were also characterized based on reactivity in Western blots. Based on titer point, sensitivity (as determined by the 50% inhibition point), and reactivity on Western blot, several clones were produced in ascites.

[2] = tested on: 266 capture antibody and 10D5 reporter antibody; assay: βAP cross-reactivity in 266/10D5 sandwich ELISA; assay type: binding; conditions: molecule at 1-1000 ng/ml
Description: Monoclonal antibody 266 was diluted to a concentration of 5 µg/ml, and monoclonal antibody 067 to 10 µg/ml in a buffer containing NaH2PO4·7H2O, 26.2 g/L; NaN3, 1 g/L; pH 8.3. One hundred µl/well of this solution was then dispensed in a 96 well polystyrene transparent COSTAR plate and incubated overnight at room temperature. Following coating, the remaining solution was aspirated and the non-specific antibody binding sites were blocked with 0.25% human serum albumin (HSA) dissolved in a buffer containing NaH2PO4·H2O, 1 g/L; Na2HPO4·7H2O, 10.8 g/L; NaN3, 0.5 g/L and sucrose, 25 g/L; pH 7.4. These coated/blocked plates were used immediately or dried in a desiccator and stored in a dry container at 4°C for a maximum of 5 days.
Calibrators containing known amounts of βAP and samples from various bodily or extra bodily fluids were then added to the plate at 100 µl/well. The samples were added undiluted or diluted in a buffer containing NaH2PO4·H2O, 0.2 g/L; Na2HPO4·7H2O, 2.16 g/L; NaN3, 0.5 g/L; BSA (globulin free) 6 g/L; Triton X-405, 0.5 mL/L; NaCl, 8.5 g/L; pH 7.4. Samples and calibrators were incubated in the wells for 1 hour at room temperature, subsequently aspirated, and the wells washed with 300 µl/well of a solution containing NaCl, 80 g/L; KCl, 3.8 g/L; Tris base, 5.85 g/L; Tris HCl, 31.75 g/L; and 0.05% Tween® 20; pH 7.5 (TBS).
NHS-biotin (15 mg) was dissolved in 0.25 ml dimethylsulfoxide, and 10 µl of this solution was added to 1 mg of 10D5 or 6C6 antibody suspended in 1 ml of sodium carbonate solution, 50 mM, pH 8.5. The mixture was incubated in the dark for 1½ hours at room temperature and then dialyzed against phosphate buffered saline, pH 7.4 for 48 hours at 4°C, to produce biotinylated reporter antibody. One hundred µl/well of the biotinylated reporter antibody (10D5 or 6C6) diluted to 3 µg/ml was then added to each well and incubated for another hour at room temperature. The antibody diluent consisted of Trizma base, 1.21 g/L; NaCl, 29.22 g/L; NaN3, 1.5 g/L, Triton X 405, 0.5 ml/L; PEG (Mw 3350), 40 g/L; Mg Cl2·6H2O, 0.095 g/L; ZnCl2, 0.014 g/L; fetal bovine serum 100 ml/L; and BSA 2.5 g/L, pH 7.4.
After 1 hour incubation at room temperature with the reporter antibody (10D5 or 6C6) the supernatant was aspirated and the wells were washed three times with 300 µl/well of TBS. Streptavidin alkaline phosphatase (100 µl/well, diluted 1:2000 in the conjugate diluent buffer) was added and incubated for another hour at room temperature. […] Fluorescent substrate (4-methyl-umbellipheryl phosphate in 2-amino-2-methyl […] buffer; pH 9.5; (100 µl/well) was added) and fluorescence read and expressed as relative fluorescent units ([…]) after 15 minutes using a Cytofluor 2300 from Millipore, with 360/40 excitation filter and 460/40 emission filter. […]

| Substance | %Cross-Reactivity [2] | further results |
| --- | --- | --- |
| βAP17-28 (LVFFAEDVGSNK; Amyloid-beta protein 42; UniProt P05067 688-699, looked up, fragment) | – | inhibition of 125I-labeled βAP1-28 binding ([1]; at 100 ng/well, any clones): no inhibition |
| βAP Fragment 13-18 (HHQKLV; Amyloid-beta protein 42; UniProt P05067 684-689, looked up, fragment) | 0% | – |
| βAP Fragment 13-20 (HHQKLVFF; Amyloid-beta protein 42; UniProt P05067 684-691, looked up, fragment) | 0.2% | – |
| βAP Fragment 15-20 (QKLVFF; Amyloid-beta protein 42; UniProt P05067 686-691, looked up, fragment) | 0% | – |
| βAP13-28 (HHQKLVFFAEDVGSNK; Amyloid-beta protein 42; UniProt P05067 684-699, looked up, fragment) | – | concentration of cold peptide for 50% inhibition ([1]; range over the clones, supernatants at the 50% titer point, 125I-labeled βAP1-28): 10-80 ng/well |
| βAP Fragment 11-18 (EVHHQKLV; Amyloid-beta protein 42; UniProt P05067 682-689, looked up, fragment) | 0% | – |

— EP0667959B1, “Methods for identifying inhibitors of the production of beta-amyloid peptide” (ELAN PHARMACEUTICALS, INC., priority 1992, dated 1994)
